Experimental data: patent US20240358693A1, “METHODS OF TREATING PAIN” (Aisa Pharma, Inc., priority 2023, published 2024)

Test system: participants with SSc-RP
Assay: Scleroderma Health Assessment Questionnaire (SHAQ): disability indices and visual analog scales
Type: in vivo, human
Settings: PP Population, Part A, sensitivity analysis
Text: The standard, validated, patient reported outcome measures tool for SSc patients, the Scleroderma Health Assessment Questionnaire (SHAQ), will be used to assess the participant qualify of life. Details are attached in the Appendix. The participant quality of life will be scored, and a disability index calculated for each questionnaire completed by the patient at Screening and each in-clinic visit. The absolute change in participant quality of life from baseline to the end of each dosing period will be calculated similar to frequency data as before.
The SHAQ includes a Raynaud's VAS, which will be reported at screening and each in-clinic visit. The absolute change in Raynaud-VAS, assessed by the participants response to the SHAQ question ‘In the past 7 days, how much have your Raynaud's interfered with your daily activities?’ at baseline and the end of each dosing period will be calculated similar to frequency data as before.
The SHAQ is used to calculate a Disability Index to assess the participant qualify of life. The eight categories assessed by the Disability Index are 1) dressing and grooming, 2) arising, 3) eating, 4) walking, 5) hygiene, 6) reach, 7) grip, and 8) common daily activities. For each of these categories, patients report the amount of difficulty they have in performing two or three specific activities.
There are four possible responses for the Disability Index questions: • Without any difficulty=0 • With some difficulty=1 • With much difficulty=2 • Unable to do=3. • The highest score reported by the patient for any component question of the eight categories determines the score for that category. • If a component question is left blank or the response is too ambiguous to assign a score, then the score for that category is determined by the remaining completed question(s). • If all component questions are blank or if more than one answer is given, then follow up with the respondent is required. • If the respondent's mark is between the response columns, then move it to the closest one. If it's directly between the two, move it to the higher one.
Each of the disability items on the SHAQ has a companion aids/devices variable that is used to record what type(s) of assistance, if any, the participant uses for his/her usual activities. These variables (see below) are coded as follows: • 0=No assistance is needed. • 1=A special device is used by the patient in his/her usual activities. • 2=The patient usually needs help from another person. • 3=The patient usually needs BOTH a special device AND help from another person.
The scoring variables and scoring rules permit the computation of two disability indices, the Standard Disability Index and the Alternative Disability Index.
This question results in a new set of category scores that are computed by adjusting the score for each category, if necessary, based on the patient's use of an aid or device or assistance for that category. If either devices and/or help from another person are checked for a category, the score is set to “2”, unless the score is already “3” (i.e., scores of “0” or “1” are increased to “2”). For example, if the highest score for the dressing category is “1”, and the patient says they use a device for dressing, the computed category score would be “2”. The sum of the computed categories scores is then calculated and divided by the number of categories answered. This gives a score in the 0 to 3 range.
The aid and device variables are not used to calculate the alternative disability index; it is calculated by adding the scores for each of the categories and dividing by the number of categories answered. This gives a score in the 0 to 3 range.
The standard, validated, patient reported outcome measures tool for SSc patients, the SHAQ, was collected at the time points specified in the study schedules (FIG. 2 and FIGS. 4A and 4B) to assess the participant's quality of life. The SHAQ included a Raynaud's VAS that will also be reported separately.

[1] = cilnidipine 10 mg and/or tadalafil 5 mg as labelled
[2] = cilnidipine 20 mg, plus tadalafil 5 mg where labelled

## COCCOC(=O)C1=C(C)NC(C)=C(C(=O)OC/C=C/c2ccccc2)C1c1cccc([N+](=O)[O-])c1 (stereo not shown) [Cilnidipine, cilnidipine]
[1]
  SHAQ Visual Analogue Scale - Intestinal Problems: Change from Baseline (Day 12), Median: −1.550
  SHAQ Visual Analogue Scale - Intestinal Problems: In-Clinic Visit (Day 12), Mean: 1.100
  SHAQ Visual Analogue Scale - Intestinal Problems: In-Clinic Visit (Day 12), Median: 0.300
  SHAQ Visual Analogue Scale - Intestinal Problems: Percent Change from Baseline (Day 12), Mean: −77.37%
  SHAQ Visual Analogue Scale - Intestinal Problems: Percent Change from Baseline (Day 12), Median: −88.00%
  SHAQ Visual Analogue Scale - Overall Disease Severity: Baseline, Mean: 2.725
  SHAQ Visual Analogue Scale - Overall Disease Severity: Baseline, Median: 1.900
  SHAQ Visual Analogue Scale - Overall Disease Severity: Change from Baseline (Day 12), Mean: −0.900
  SHAQ Visual Analogue Scale - Overall Disease Severity: Change from Baseline (Day 12), Median: −0.950
  SHAQ Visual Analogue Scale - Overall Disease Severity: In-Clinic Visit (Day 12), Mean: 1.825
  SHAQ Visual Analogue Scale - Overall Disease Severity: In-Clinic Visit (Day 12), Median: 1.050
  SHAQ Visual Analogue Scale - Overall Disease Severity: Percent Change from Baseline (Day 12), Mean: −56.96%
  SHAQ Visual Analogue Scale - Overall Disease Severity: Percent Change from Baseline (Day 12), Median: −44.12%
  SHAQ Visual Analogue Scale - Raynaud's: Baseline, Mean: 1.600
  SHAQ Visual Analogue Scale - Raynaud's: Baseline, Median: 1.000
  SHAQ Visual Analogue Scale - Raynaud's: Change from Baseline (Day 12), Mean: 0.325
  SHAQ Visual Analogue Scale - Raynaud's: Change from Baseline (Day 12), Median: 0.350
  SHAQ Visual Analogue Scale - Raynaud's: In-Clinic Visit (Day 12), Mean: 1.925
  SHAQ Visual Analogue Scale - Raynaud's: In-Clinic Visit (Day 12), Median: 1.700
  SHAQ Visual Analogue Scale - Raynaud's: Percent Change from Baseline (Day 12), Mean: 11.36%
  SHAQ Visual Analogue Scale - Raynaud's: Percent Change from Baseline (Day 12), Median: −2.27%
[2]
  SHAQ Visual Analogue Scale - Breathing Problems: Baseline, Mean: 1.325
  SHAQ Visual Analogue Scale - Breathing Problems: Baseline, Median: 1.550
  SHAQ Visual Analogue Scale - Breathing Problems: Change from Baseline (Day 12), Mean: −0.475
  SHAQ Visual Analogue Scale - Breathing Problems: Change from Baseline (Day 12), Median: −0.250
  SHAQ Visual Analogue Scale - Breathing Problems: In-Clinic Visit (Day 12), Mean: 0.850
  SHAQ Visual Analogue Scale - Breathing Problems: In-Clinic Visit (Day 12), Median: 0.450
  SHAQ Visual Analogue Scale - Breathing Problems: Percent Change from Baseline (Day 12), Mean: 3.73%
  SHAQ Visual Analogue Scale - Breathing Problems: Percent Change from Baseline (Day 12), Median: −17.54%
  SHAQ Visual Analogue Scale - Finger Ulcers: Baseline, Mean: 1.800
  SHAQ Visual Analogue Scale - Finger Ulcers: Baseline, Median: 0.300
  SHAQ Visual Analogue Scale - Finger Ulcers: Change from Baseline (Day 12), Mean: −0.933
  SHAQ Visual Analogue Scale - Finger Ulcers: Change from Baseline (Day 12), Median: 0.000
  SHAQ Visual Analogue Scale - Finger Ulcers: In-Clinic Visit (Day 12), Mean: 0.650
  SHAQ Visual Analogue Scale - Finger Ulcers: In-Clinic Visit (Day 12), Median: 0.350
  SHAQ Visual Analogue Scale - Finger Ulcers: Percent Change from Baseline (Day 12), Mean: 35.29%
  SHAQ Visual Analogue Scale - Finger Ulcers: Percent Change from Baseline (Day 12), Median: 35.29%
  SHAQ Visual Analogue Scale - Intestinal Problems: Baseline, Mean: 0.700
  SHAQ Visual Analogue Scale - Intestinal Problems: Baseline, Median: 0.650
  SHAQ Visual Analogue Scale - Intestinal Problems: Change from Baseline (Day 12), Mean: 0.150
  SHAQ Visual Analogue Scale - Intestinal Problems: Change from Baseline (Day 12), Median: 0.150
  SHAQ Visual Analogue Scale - Intestinal Problems: In-Clinic Visit (Day 12), Mean: 0.850
  SHAQ Visual Analogue Scale - Intestinal Problems: In-Clinic Visit (Day 12), Median: 0.650
  SHAQ Visual Analogue Scale - Intestinal Problems: Percent Change from Baseline (Day 12), Mean: −10.00%
  SHAQ Visual Analogue Scale - Intestinal Problems: Percent Change from Baseline (Day 12), Median: 30.00%
  SHAQ Visual Analogue Scale - Overall Disease Severity: Baseline, Mean: 3.125
  SHAQ Visual Analogue Scale - Overall Disease Severity: Baseline, Median: 2.950
  SHAQ Visual Analogue Scale - Overall Disease Severity: Change from Baseline (Day 12), Mean: −2.000
  SHAQ Visual Analogue Scale - Overall Disease Severity: Change from Baseline (Day 12), Median: −1.700
  SHAQ Visual Analogue Scale - Overall Disease Severity: In-Clinic Visit (Day 12), Mean: 1.125
  SHAQ Visual Analogue Scale - Overall Disease Severity: In-Clinic Visit (Day 12), Median: 1.300
  SHAQ Visual Analogue Scale - Overall Disease Severity: Percent Change from Baseline (Day 12), Mean: −64.20%
  SHAQ Visual Analogue Scale - Overall Disease Severity: Percent Change from Baseline (Day 12), Median: −64.44%
  SHAQ Visual Analogue Scale - Raynaud's: Baseline, Mean: 3.075
  SHAQ Visual Analogue Scale - Raynaud's: Baseline, Median: 3.000
  SHAQ Visual Analogue Scale - Raynaud's: Change from Baseline (Day 12), Mean: −1.200
  SHAQ Visual Analogue Scale - Raynaud's: Change from Baseline (Day 12), Median: −1.050
  SHAQ Visual Analogue Scale - Raynaud's: In-Clinic Visit (Day 12), Mean: 1.875
  SHAQ Visual Analogue Scale - Raynaud's: In-Clinic Visit (Day 12), Median: 1.250
  SHAQ Visual Analogue Scale - Raynaud's: Percent Change from Baseline (Day 12), Mean: −41.11%
  SHAQ Visual Analogue Scale - Raynaud's: Percent Change from Baseline (Day 12), Median: −38.67%
